Reference: US20210062178A1, “NOVEL XYLOSE ISOMERASE GENE AND POLYPEPTIDE AND USES THEREOF” (The Regents of the University of California, priority 2019, published 2021)

System: new D-xylose isomerase (XI) 8454_2 from the gut of Odontotaenius disjunctus, SEQ ID NO: 2
Assay: Enzymatic activity of xylose isomerase in crude cell extracts, coupled sorbitol dehydrogenase (SDH) assay, NADH depletion at 340 nm
Assay type: biochemical
Method: This clone was then was cultivated in liquid medium containing xylose as the sole carbon source in parallel with an identical clone carrying the same metabolic pathway, but instead expressing a XI from Piromyces sp (opt.PiXI). Opt.PiXI is a codon-optimized version of the XI gene from Piromyces sp.
Specific enzymatic activity was measured using a coupled enzyme (sorbitol dehydrogenase—SDH) that converts the product of XI (xylulose) into xylitol. In this process, for each molecule of xylose converted to xylulose, a molecule of NADH is converted in NAD+. NADH depletion is quantified by spectrophotometry at an optical density of 340 nm, and XI activity is stoichiometrically inferred. For the enzymatic activity, crude cell extracts were prepared using the same conditions for both strains (carrying 8454_2 or opt.PiXI genes) and immediately used.

In the case of OC1OC[C@@H](O)[C@H](O)[C@H]1O (stereo partly drawn) [D-xylose], the “isomerization maximal velocity (Vmax) relative to the XI from Piromyces sp.” value (compared with XI from Piromyces sp. (opt.PiXI) under identical biological backgrounds and experimental conditions) was “three times higher” and the Km (new XI, expressed in S. cerevisiae) was 19 mM.
